ChEMBL document CHEMBL3352614, “MoGAT-2 Inhibitors May Provide Effective Treatment for Hypertriglyceridemia” (ACS Med Chem Lett, 2014)

Target: 2-acylglycerol O-acyltransferase 2 (Homo sapiens, UniProt Q3SYC2)
Experiment: Inhibition of human MoGAT-2 expressed in human Caco2 cells assessed as inhibition of 2-O-Hexadecylglycerol […] pretreated for 30 mins by LC-MS analysis
Type: cell-based, Caco-2

Sequence of 2-acylglycerol O-acyltransferase 2 (Q3SYC2 whole entry): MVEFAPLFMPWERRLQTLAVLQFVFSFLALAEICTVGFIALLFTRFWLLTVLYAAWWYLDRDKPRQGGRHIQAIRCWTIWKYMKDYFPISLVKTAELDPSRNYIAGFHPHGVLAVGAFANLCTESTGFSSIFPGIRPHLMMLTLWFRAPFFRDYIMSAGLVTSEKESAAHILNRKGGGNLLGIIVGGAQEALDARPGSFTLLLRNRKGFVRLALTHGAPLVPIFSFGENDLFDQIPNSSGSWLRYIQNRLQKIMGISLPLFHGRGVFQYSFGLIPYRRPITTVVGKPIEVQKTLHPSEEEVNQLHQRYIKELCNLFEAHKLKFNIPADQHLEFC

An IC50 of 294 nM was found for `C[C@@H](NS(C)(=O)=O)c1ccc(CNC[C@@H]2CO[C@@H](c3ccccc3)CO2)cc1` in this work.
